Measurements as given in patent US20170190671A1, “BIS(ARYL)CATECHOL DERIVATIVES AS HERBICIDES” (E I DU PONT DE NEMOURS AND COMPANY, priority 2014, published 2017).

How the values were obtained:
Type in all cases: in vivo
[1] = tested on: oilseed rape (Brassica napus); experiment: Test C preemergence; details: Brassica napus, pre-emergence, preemergence, scale 0 to 100, read-out: Plant response rating, Oilseed Rape
In short: (§1)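 Seeded loam-sand soil (preemergence) or young potted plants of 2-18 cm (postemergence) received test chemical formulated with surfactant in a non-phytotoxic solvent. Pots were kept in the greenhouse for 13-15 days before a visual 0-100 control rating relative to controls.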

[2] = tested on: yellow nutsedge (Cyperus esculentus); experiment: Test C preemergence; details: Cyperus, pre-emergence, 336 h, preemergence, scale 0 to 100, read-out: Plant response rating, Nutsedge, Yellow
In short: as §1

[3] = tested on: blackgrass (Alopecurus myosuroides); experiment: Test C preemergence; details: Alopecurus myosuroides, pre-emergence, 336 h, preemergence, scale 0 to 100, read-out: Plant response rating, Blackgrass
In short: as §1

[4] = tested on: velvetleaf (Abutilon theophrasti); experiment: Test C postemergence; details: Abutilon theophrasti, post-emergence, Postemergence, scale 0 to 100, read-out: Plant response rating, Velvetleaf
In short: as §1

[5] = tested on: oilseed rape (Brassica napus); experiment: Test C postemergence; details: Brassica napus, post-emergence, Postemergence, scale 0 to 100, read-out: Plant response rating, Oilseed Rape
In short: as §1

[6] = tested on: lambsquarters (Chenopodium album); experiment: Test C postemergence; details: Chenopodium album, post-emergence, 336 h, Postemergence, scale 0 to 100, read-out: Plant response rating, Lambsquarters
In short: as §1

[7] = tested on: galium (catchweed bedstraw, Galium aparine); experiment: Test C postemergence; details: Galium, post-emergence, 336 h, Postemergence, scale 0 to 100, read-out: Plant response rating, Galium
In short: as §1

corn (Zea mays) = experiment: Test C postemergence; details: Zea mays, post-emergence, 336 h, Postemergence, scale 0 to 100
In short: as §1

[8] = tested on: barnyardgrass (Echinochloa crus-galli); experiment: Test C postemergence; details: Echinochloa crus-galli, post-emergence, Postemergence, scale 0 to 100, read-out: Plant response rating, Barnyardgrass
In short: as §1

[9] = tested on: yellow nutsedge (Cyperus esculentus); experiment: Test C postemergence; details: Cyperus, post-emergence, 336 h, Postemergence, scale 0 to 100, read-out: Plant response rating, Nutsedge, Yellow
In short: as §1

[10] = tested on: Italian ryegrass (Lolium multiflorum); experiment: Test C postemergence; details: Lolium multiflorum, post-emergence, 336 h, Postemergence, scale 0 to 100, read-out: Plant response rating, Ryegrass, Italian
In short: as §1

[11] = tested on: morningglory (Ipomoea coccinea); experiment: Test C postemergence; details: Ipomoea, post-emergence, 336 h, Postemergence, scale 0 to 100, read-out: Plant response rating, Morningglory
In short: as §1

[12] = tested on: johnsongrass (Sorghum halepense); experiment: Test C postemergence; details: Sorghum halepense, post-emergence, 336 h, Postemergence, scale 0 to 100, read-out: Plant response rating, Johnsongrass
In short: as §1

[13] = tested on: blackgrass (Alopecurus myosuroides); experiment: Test C postemergence; details: Alopecurus myosuroides, post-emergence, 336 h, Postemergence, scale 0 to 100, read-out: Plant response rating, Blackgrass
In short: as §1

[14] = tested on: winter wheat (Triticum aestivum); experiment: Test C postemergence; details: Triticum aestivum, post-emergence, 336 h, Postemergence, scale 0 to 100, read-out: Plant response rating, Wheat
In short: as §1

[15] = tested on: chickweed (common chickweed, Stellaria media); experiment: Test C postemergence; details: Stellaria media, post-emergence, Postemergence, scale 0 to 100, read-out: Plant response rating, Chickweed
In short: as §1

[16] = tested on: giant foxtail (Setaria faberii); experiment: Test C postemergence; details: Setaria faberi, post-emergence, 336 h, Postemergence, scale 0 to 100, read-out: Plant response rating, Foxtail, Giant
In short: as §1

wild oat (Avena fatua) = experiment: Test C postemergence; details: Avena fatua, post-emergence, Postemergence, scale 0 to 100, read-out: Plant response rating, Oat, Wild
In short: as §1

[17] = tested on: large (Lg) crabgrass (Digitaria sanguinalis); experiment: Test C postemergence; details: Digitaria sanguinalis, post-emergence, 336 h, Postemergence, scale 0 to 100, read-out: Plant response rating, Crabgrass, Large
In short: as §1

[18] = tested on: ragweed (common ragweed, Ambrosia elatior); experiment: Test C postemergence; details: Ambrosia artemisiifolia, post-emergence, 336 h, Postemergence, scale 0 to 100, read-out: Plant response rating, Ragweed
In short: as §1

kochia (Kochia scoparia) = experiment: Test C postemergence; details: Bassia scoparia, post-emergence, Postemergence, scale 0 to 100, read-out: Plant response rating, Kochia
In short: as §1

soybean (Glycine max) = experiment: Test C postemergence; details: Glycine max, post-emergence, Postemergence, scale 0 to 100, read-out: Plant response rating, Soybean
In short: as §1

Fc1cnc(Oc2c(F)cccc2Oc2ncc(Cl)cn2)nc1 [Compound 23]
85%: pest or weed control at 62 g/ha ([3]; 62 g ai/ha) | pest or weed control at 125 g/ha ([11]; 125 g ai/ha)
90%: pest or weed control at 250 g/ha ([4]; 250 g ai/ha) | pest or weed control at 125 g/ha ([6]; 125 g ai/ha) | pest or weed control at 62 g/ha ([7]; 62 g ai/ha) | pest or weed control at 250 g/ha (kochia (Kochia scoparia); 250 g ai/ha) | plant injury at 125 g/ha (soybean (Glycine max); 125 g ai/ha)
80%: pest or weed control at 62 g/ha ([6]; 62 g ai/ha) | pest or weed control at 125 g/ha (kochia (Kochia scoparia); 125 g ai/ha)
5%: Corn plant response rating (crop injury, 0 = no effect, 100 = complete kill) at 31 g/ha (corn (Zea mays); 31 g ai/ha) | Corn plant response rating (crop injury, 0 = no effect, 100 = complete kill) at 62 g/ha (corn (Zea mays); 62 g ai/ha) | pest or weed control at 31 g/ha ([8]; 31 g ai/ha) | pest or weed control at 125 g/ha ([9]; 125 g ai/ha) | pest or weed control at 250 g/ha ([9]; 250 g ai/ha) | pest or weed control at 125 g/ha ([12]; 125 g ai/ha) | pest or weed control at 250 g/ha ([12]; 250 g ai/ha) | pest or weed control at 62 g/ha ([13]; 62 g ai/ha) | pest or weed control at 125 g/ha ([13]; 125 g ai/ha) | plant injury at 250 g/ha ([14]; 250 g ai/ha) | pest or weed control at 62 g/ha ([16]; 62 g ai/ha) | pest or weed control at 250 g/ha (wild oat (Avena fatua); 250 g ai/ha) | pest or weed control at 31 g/ha ([17]; 31 g ai/ha) | pest or weed control at 62 g/ha ([17]; 62 g ai/ha) | pest or weed control at 31 g/ha (kochia (Kochia scoparia); 31 g ai/ha)
65%: pest or weed control at 31 g/ha ([3]; 31 g ai/ha) | plant injury at 62 g/ha (soybean (Glycine max); 62 g ai/ha)
35%: pest or weed control at 250 g/ha ([10]; 250 g ai/ha) | pest or weed control at 250 g/ha ([16]; 250 g ai/ha)
100%: plant injury at 31 g/ha ([1]; 31 g ai/ha) | plant injury at 62 g/ha ([1]; 62 g ai/ha) | plant injury at 125 g/ha ([1]; 125 g ai/ha) | plant injury at 250 g/ha ([1]; 250 g ai/ha) | pest or weed control at 250 g/ha ([18]; 250 g ai/ha)
50%: plant injury at 125 g/ha ([5]; 125 g ai/ha) | pest or weed control at 31 g/ha ([15]; 31 g ai/ha) | pest or weed control at 62 g/ha ([15]; 62 g ai/ha)
25%: pest or weed control at 250 g/ha ([8]; 250 g ai/ha)
70%: pest or weed control at 31 g/ha ([4]; 31 g ai/ha) | pest or weed control at 62 g/ha ([4]; 62 g ai/ha) | pest or weed control at 31 g/ha ([6]; 31 g ai/ha) | pest or weed control at 31 g/ha ([7]; 31 g ai/ha) | pest or weed control at 62 g/ha ([18]; 62 g ai/ha) | pest or weed control at 62 g/ha (kochia (Kochia scoparia); 62 g ai/ha) | plant injury at 31 g/ha (soybean (Glycine max); 31 g ai/ha)
0%: pest or weed control at 31 g/ha ([2]; 31 g ai/ha) | pest or weed control at 31 g/ha ([9]; 31 g ai/ha) | pest or weed control at 62 g/ha ([9]; 62 g ai/ha) | pest or weed control at 31 g/ha ([10]; 31 g ai/ha) | pest or weed control at 62 g/ha ([10]; 62 g ai/ha) | pest or weed control at 125 g/ha ([10]; 125 g ai/ha) | pest or weed control at 31 g/ha ([12]; 31 g ai/ha) | pest or weed control at 62 g/ha ([12]; 62 g ai/ha) | pest or weed control at 31 g/ha ([13]; 31 g ai/ha) | plant injury at 31 g/ha ([14]; 31 g ai/ha) | plant injury at 62 g/ha ([14]; 62 g ai/ha) | plant injury at 125 g/ha ([14]; 125 g ai/ha) | pest or weed control at 31 g/ha ([16]; 31 g ai/ha) | pest or weed control at 31 g/ha (wild oat (Avena fatua); 31 g ai/ha) | pest or weed control at 62 g/ha (wild oat (Avena fatua); 62 g ai/ha) | pest or weed control at 125 g/ha (wild oat (Avena fatua); 125 g ai/ha)
95%: pest or weed control at 125 g/ha ([3]; 125 g ai/ha) | pest or weed control at 250 g/ha ([6]; 250 g ai/ha) | pest or weed control at 125 g/ha ([7]; 125 g ai/ha) | pest or weed control at 250 g/ha ([7]; 250 g ai/ha) | pest or weed control at 250 g/ha ([11]; 250 g ai/ha) | plant injury at 250 g/ha (soybean (Glycine max); 250 g ai/ha)
10%: pest or weed control at 62 g/ha ([2]; 62 g ai/ha) | plant injury at 31 g/ha ([5]; 31 g ai/ha) | Corn plant response rating (crop injury, 0 = no effect, 100 = complete kill) at 125 g/ha (corn (Zea mays); 125 g ai/ha) | Corn plant response rating (crop injury, 0 = no effect, 100 = complete kill) at 250 g/ha (corn (Zea mays); 250 g ai/ha) | pest or weed control at 62 g/ha ([8]; 62 g ai/ha) | pest or weed control at 125 g/ha ([8]; 125 g ai/ha) | pest or weed control at 125 g/ha ([16]; 125 g ai/ha) | pest or weed control at 125 g/ha ([17]; 125 g ai/ha)
60%: pest or weed control at 125 g/ha ([2]; 125 g ai/ha) | pest or weed control at 31 g/ha ([11]; 31 g ai/ha) | pest or weed control at 125 g/ha ([15]; 125 g ai/ha) | pest or weed control at 250 g/ha ([15]; 250 g ai/ha) | pest or weed control at 31 g/ha ([18]; 31 g ai/ha)
75%: pest or weed control at 125 g/ha ([4]; 125 g ai/ha) | pest or weed control at 62 g/ha ([11]; 62 g ai/ha) | pest or weed control at 125 g/ha ([18]; 125 g ai/ha)
30%: plant injury at 62 g/ha ([5]; 62 g ai/ha) | pest or weed control at 250 g/ha ([13]; 250 g ai/ha) | pest or weed control at 250 g/ha ([17]; 250 g ai/ha)
45%: plant injury at 250 g/ha ([5]; 250 g ai/ha)
